Data: patent publication US20160030407A1, “Method of Treating Inflammatory Lung Disease” (priority 2010, published 2016)
“And” between values parts separate entries of the source, which are not always exact repeats. Equal entries are not always repeated. “Also recorded” adds a separate entry of the source. Where two headings read alike, the source gives them in different places.

Columns and labels:
NFκB = NFκB luciferase assay (inhibition of TNFα-induced NFκB activity); type: cell-based, Human; conditions: HEK293 with NFκB luciferase reporter challenged with TNFα
Procedure: The smokeless tobacco used in these experiments was plain long-leaf Copenhagen tobacco purchased from a local vendor. Crude extract was extracted with methanol and water and clarified by centrifugation and filtration. The alkaloid extract was prepared from sodium hydroxide and methanol extraction, organic phase separation and purification. All treatment samples were prepared as a function of weight (μg/ml), and all samples were diluted in DMSO.
Human […] kidney cells (HEK293) transfected with an NFκB luciferase reporter were challenged with TNFα for three hours, then samples were applied to the challenged cells.
The effect of S-(−)-anatabine on TNFα-induced NFκB activity in vitro was determined as described in Example 1.

[1] = Physical signs after single i.v. dose (Example 3); type: in vivo, Sprague-Dawley rats; conditions: rat, nicotine 0.4 mg/kg, anatabine 0.10, 0.75, 1.0 mg/kg, tartrate
Procedure: Four aliquots of each dose level formulation were collected and stored at −80° C. The test compound, corresponding dose level, number of animals, and sample collection times for Phase I of the study are shown in Table 3. The test compound, corresponding dose level, number of animals, and sample collection times for Phase II of the study are shown in Table 4. The physical signs of each animal were monitored following administration of the test compound.

[2] = Single i.v. dose toxicity: necropsy observations and organ weights; type: in vivo, Sprague-Dawley rats
Procedure: Body weight and food consumption was measured daily for 14 days. On day 15, urine was collected on all surviving animals. The animals were euthanized and bled via cardiac puncture, and blood was collected for analysis. Tissues were collected, weighed, evaluated for gross abnormalities, and stored in 10% neutral-buffered formalin.
(§1) On day 15, urine was collected on all surviving animals for urinalysis. The animals were euthanized and bled via cardiac puncture. Blood was collected for hematology, clinical chemistry, and coagulation analysis. Tissues were collected, weighed, and stored in 10% neutral-buffered formalin for possible future analysis.

[3] = Single i.v. dose toxicity: hematology; type: in vivo, Sprague-Dawley rats
Source text: as §1

[4] = Single i.v. dose toxicity: coagulation (aPTT, PT); type: in vivo, Sprague-Dawley rats; conditions: for ACTIVE PARTIAL THROMBOPLASTIN TIME: nicotine 0.75 mg/kg single i.v. dose, tartrate
Source text: as §1

nAChR α3/β4 = nAChR α3/β4 (Homo sapiens, UniProt P30926+P32297); type: cell-based
Procedure: (§2) Briefly, cells were incubated with […] dye for 30 min at 37° C.

nAChR α4/β2 = target: T1, nAChR α4/β2 (Homo sapiens, UniProt P17787+P43681); type: cell-based; conditions: for Normalized % Potentiation: with 10 μM Ach, 100% = 10 μM Ach+3 μM epibatidine, 0% = 10 μM Ach
T1 construct: host or cells: HEK293 cells, transient
Procedure: as §2

nAChR α7 = target: T2, nAChR α7 (Homo sapiens, UniProt P36544); assay: nAChR α7 channel agonist assay (FLIPR); type: cell-based; conditions: in presence of PNU-120596; maximal stimulation not achieved
T2 construct: host or cells: CHO cells coexpressing RIC-3
Procedure: as §2
Therefore, the assay of agonist activity for either Ach or for the test articles was conducted in the presence of the positive allosteric modulator.

[5] = Group E: Nicotine 0.75 mg/kg (Females), individual animals, tartrate
[6] = Group E: Nicotine 0.75 g/kg Males), individual animals, tartrate
[7] = female animals, Nicotine 0.75 mg/kg, n = 3
[8] = male rats, single i.v. 0.75 mg/kg nicotine, day 15
[9] = 0.75 mg/kg nicotine, female rats, individual animals
[10] = 0.75 mg/kg nicotine, female rats, individual animals, tartrate
[11] = 0.75 mg/kg nicotine, male rats, individual animals
[12] = 0.75 mg/kg nicotine, male rats, individual animals, tartrate
[13] = 0.75 mg/kg, gender F, group mean
[14] = 0.75 mg/kg, gender M, group mean

T1 sequence (P43681 29-627): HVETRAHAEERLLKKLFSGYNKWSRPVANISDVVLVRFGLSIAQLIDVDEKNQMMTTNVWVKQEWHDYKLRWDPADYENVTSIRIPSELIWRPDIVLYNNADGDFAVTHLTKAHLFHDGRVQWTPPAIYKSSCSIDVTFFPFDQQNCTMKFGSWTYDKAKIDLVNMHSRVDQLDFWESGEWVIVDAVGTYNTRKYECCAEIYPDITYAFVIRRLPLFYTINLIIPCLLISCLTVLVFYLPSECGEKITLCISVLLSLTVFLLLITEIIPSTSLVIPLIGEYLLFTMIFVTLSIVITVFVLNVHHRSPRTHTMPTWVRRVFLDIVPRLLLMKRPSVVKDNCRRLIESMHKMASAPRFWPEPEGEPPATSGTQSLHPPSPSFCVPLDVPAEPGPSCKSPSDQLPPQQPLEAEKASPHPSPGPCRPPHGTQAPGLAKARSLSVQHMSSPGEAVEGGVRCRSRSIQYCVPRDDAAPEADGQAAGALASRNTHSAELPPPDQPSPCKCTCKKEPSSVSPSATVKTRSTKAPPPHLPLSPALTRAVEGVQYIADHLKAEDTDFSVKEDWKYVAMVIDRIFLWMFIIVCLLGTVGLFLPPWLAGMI
T1 sequence (P17787 26-502): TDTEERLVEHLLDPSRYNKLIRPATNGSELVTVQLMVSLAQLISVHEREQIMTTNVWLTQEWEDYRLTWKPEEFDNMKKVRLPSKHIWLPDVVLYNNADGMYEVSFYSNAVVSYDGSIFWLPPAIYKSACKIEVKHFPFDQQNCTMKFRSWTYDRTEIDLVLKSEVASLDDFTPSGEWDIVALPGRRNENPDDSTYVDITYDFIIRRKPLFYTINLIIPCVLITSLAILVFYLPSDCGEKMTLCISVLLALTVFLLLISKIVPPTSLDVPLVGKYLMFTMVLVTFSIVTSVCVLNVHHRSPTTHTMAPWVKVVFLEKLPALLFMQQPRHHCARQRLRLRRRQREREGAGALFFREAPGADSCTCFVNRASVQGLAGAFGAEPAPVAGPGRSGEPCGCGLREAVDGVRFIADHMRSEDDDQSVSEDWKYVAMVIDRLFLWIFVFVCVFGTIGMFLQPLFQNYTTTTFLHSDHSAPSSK
T2 sequence (P36544 23-502): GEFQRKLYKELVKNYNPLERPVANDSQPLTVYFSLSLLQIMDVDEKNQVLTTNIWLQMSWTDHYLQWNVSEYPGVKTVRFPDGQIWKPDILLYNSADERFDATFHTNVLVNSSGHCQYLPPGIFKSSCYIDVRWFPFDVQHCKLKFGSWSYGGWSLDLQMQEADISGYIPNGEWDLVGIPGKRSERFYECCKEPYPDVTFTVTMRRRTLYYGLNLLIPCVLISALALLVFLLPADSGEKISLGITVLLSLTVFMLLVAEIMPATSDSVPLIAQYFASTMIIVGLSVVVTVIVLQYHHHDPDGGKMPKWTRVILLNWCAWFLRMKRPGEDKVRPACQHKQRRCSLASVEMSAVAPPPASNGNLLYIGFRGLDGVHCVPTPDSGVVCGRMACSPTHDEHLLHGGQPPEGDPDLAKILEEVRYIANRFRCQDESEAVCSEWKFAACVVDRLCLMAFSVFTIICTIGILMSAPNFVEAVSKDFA
nAChR α3/β4, sequence (P32297 32-505): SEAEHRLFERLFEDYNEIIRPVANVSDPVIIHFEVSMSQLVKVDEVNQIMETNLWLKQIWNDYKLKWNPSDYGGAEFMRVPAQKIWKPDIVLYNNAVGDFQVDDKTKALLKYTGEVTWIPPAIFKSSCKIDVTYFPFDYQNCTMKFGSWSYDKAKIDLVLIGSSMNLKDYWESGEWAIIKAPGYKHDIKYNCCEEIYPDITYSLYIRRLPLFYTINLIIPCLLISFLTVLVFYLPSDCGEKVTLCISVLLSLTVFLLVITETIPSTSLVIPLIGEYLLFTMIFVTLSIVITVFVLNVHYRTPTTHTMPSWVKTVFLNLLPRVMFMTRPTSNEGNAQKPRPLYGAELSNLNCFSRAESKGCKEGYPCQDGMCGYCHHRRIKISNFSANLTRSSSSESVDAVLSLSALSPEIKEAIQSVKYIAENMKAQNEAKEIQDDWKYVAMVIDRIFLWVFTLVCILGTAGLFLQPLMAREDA
nAChR α3/β4, sequence (P30926 22-498): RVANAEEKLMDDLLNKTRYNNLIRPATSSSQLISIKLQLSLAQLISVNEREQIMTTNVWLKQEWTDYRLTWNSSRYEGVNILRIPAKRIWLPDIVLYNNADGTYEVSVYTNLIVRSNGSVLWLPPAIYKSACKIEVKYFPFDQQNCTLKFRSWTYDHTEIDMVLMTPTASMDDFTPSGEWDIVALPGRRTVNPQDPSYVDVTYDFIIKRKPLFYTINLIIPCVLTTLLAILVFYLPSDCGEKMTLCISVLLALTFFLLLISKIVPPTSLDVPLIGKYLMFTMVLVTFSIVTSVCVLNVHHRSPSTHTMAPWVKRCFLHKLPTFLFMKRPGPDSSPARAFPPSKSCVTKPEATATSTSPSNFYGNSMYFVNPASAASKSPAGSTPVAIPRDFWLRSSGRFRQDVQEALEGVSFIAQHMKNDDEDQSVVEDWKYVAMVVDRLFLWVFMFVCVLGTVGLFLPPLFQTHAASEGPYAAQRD

CN1CCCC1c1cccnc1.O=C(O)C(O)C(O)C(=O)O (single isomer, unassigned; (-)) [Nicotine, (−) Nicotine hydrogen tartrate, reference compound]
Effect on TNFα-induced NFκB-mediated transcription of luciferase (NFκB): reduce TNFα-induced NFκB-mediated transcription
physical signs post dose [1]: experienced tremors immediately post dose; also recorded: experienced labored breathing
Tissue Collection Weights: Heart [2, 5]: 0.83 g
Tissue Collection Weights: Lungs [2, 5]: 1.20 g
Tissue Collection Weights: Ovaries/uterus [2, 5]: 0.92 g
Tissue Collection Weights: Small intestine [2, 5]: 0.41 g and 0.40 g and 0.28 g
Tissue Collection Weights: Spleen [2, 5]: 0.46 g (2×) and 0.76 g
Tissue Collection Weights: Thymus [2, 5]: 0.54 g and 0.48 g (2×)
Tissue Collection Weights: Brain [2, 6]: 1.90 g
Tissue Collection Weights: Heart [2, 6]: 1.20 g
Tissue Collection Weights: Prostate [2, 6]: 0.41 g and 0.28 g (2×) and 0.45 g
Tissue Collection Weights: Small intestine [2, 6]: 0.71 g and 0.56 g and 0.53 g and 0.40 g
Tissue Collection Weights: Spleen [2, 6]: 0.81 g and 0.62 g and 0.78 g and 0.86 g
Tissue Collection Weights: Thymus [2, 6]: 0.54 g and 0.46 g and 0.56 g and 0.76 g
Organ Weight Brain, Mean [2, 7]: 1.86 g
Organ Weight Heart, Mean [2, 7]: 0.99 g
Organ Weight Kidneys, Mean [2, 7]: 2.31 g
Organ Weight Liver, Mean [2, 7]: 9.59 g
Organ Weight Lungs, Mean [2, 7]: 1.32 g
Organ Weight Ovaries/uteris, Mean [2, 7]: 1.28 g
Organ Weight, Small intestine (mean) [2, 7]: 0.36 g
Organ Weight, Spleen (mean) [2, 7]: 0.56 g
Organ Weight, Thymus (mean) [2, 7]: 0.50 g
Organ Weight, Prostate (mean) [2, 8]: 0.36 g
Organ Weight, Small intestine (mean) [2, 8]: 0.55 g
Organ Weight, Spleen (mean) [2, 8]: 0.77 g
Organ Weight, Thymus (mean) [2, 8]: 0.58 g
organ weights vs vehicle controls ([2]; nicotine 0.75 mg/kg, heart, liver and kidneys in males, thymus and heart in females): significantly lower than those of the corresponding vehicle controls
ANISOCYTOSIS [3, 9]: SLIGHT
BASOPHIL [3, 9]: 0%
EOSINOPHIL [3, 9]: 0%
POLYCHROMASIA [3, 9]: SLIGHT
LYMPHOCYTE [3, 10]: 83% and 87% and 89%
MCHC [3, 10]: 34%
MONOCYTE [3, 10]: 2% and 1% and 0%
NEUTROPHILSEG [3, 10]: 15% and 12% and 11%
RE[…] [3, 10]: 5.8% and 4.9% and 4.5%
ANISOCYTOSIS [3, 11]: SLIGHT
BASOPHIL [3, 11]: 0%
EOSINOPHIL [3, 11]: 0%
POLYCHROMASIA [3, 11]: SLIGHT
HCT [3, 12]: 50%
LYMPHOCYTE [3, 12]: 86% and 87% and 80% and 90%
MONOCYTE [3, 12]: 2% (3×) and 4%
NEUTROPHILSEG [3, 12]: 12% and 11% and 16% and 8%
RE[…] [3, 12]: 4.3% and 4.8% and 5.6% and 6.1%
BASOPHIL [3, 13]: 0.0%
EOSINOPHIL [3, 13]: 0.0%
HGB [3, 13]: 16.0 g/dL
MONOCYTE [3, 13]: 1.0%
PLATELET COUNT [3, 13]: 1.363e+06 µL⁻¹
RBC [3, 13]: 8e+06 µL⁻¹
RE[…] [3, 13]: 5.1%
WBC [3, 13]: 10200 µL⁻¹
BASOPHIL [3, 14]: 0.0%
EOSINOPHIL [3, 14]: 0.0%
MCHC [3, 14]: 34.0%
MONOCYTE [3, 14]: 2.5%
PLATELET COUNT [3, 14]: 1.3558e+06 µL⁻¹
RBC [3, 14]: 7.6e+06 µL⁻¹
RE[…] [3, 14]: 5.2%
WBC [3, 14]: 11400 µL⁻¹
mean corpuscular volume (MCV) and mean corpuscular hemoglobin (MCH) vs control ([3]; female rats, […] anatabine, 0.75 mg/kg nicotine i.v.): small, but statistically significant decreases
aPTT vs vehicle control ([4]; male and female rats, nicotine 0.75 mg/kg): significantly lower relative to the vehicle control group
ACTIVE PARTIAL THROMBOPLASTIN TIME ([4]; female rats, individual animals E6, E9): 15 s
ACTIVE PARTIAL THROMBOPLASTIN TIME ([4]; male rats, individual animals E1, E2, E3, E5): 15 s
potentiation (nAChR α3/β4): Neither nicotine nor anatabine potentiated
inhibition (nAChR α4/β2; 100 μM Ach + 0.3 μM epibatidine, not concentration-dependent, IC50s could not be determined): inhibited receptor activity
Normalized % Potentiation (nAChR α4/β2; test conc 0.3 μM): −46.00%
Normalized % Potentiation (nAChR α4/β2; test conc 1 μM): −46.34%
Normalized % Potentiation (nAChR α4/β2; test conc 3 μM): −40.54%
Normalized % Potentiation (nAChR α4/β2; test conc 10 μM): −42.16%
Normalized % Potentiation (nAChR α4/β2; test conc 30 μM): −43.70%
Normalized % Potentiation (nAChR α4/β2; test conc 100 μM): −43.40%
Normalized % Potentiation (nAChR α4/β2; test conc 300 μM): −34.56%
Normalized % Potentiation (nAChR α4/β2; test conc 1000 μM): −39.66%
agonist activity (nAChR α7): showed agonist activity
